In assay [1] the target is T1, recombinant SARS-CoV-2 main protease (Mpro) (Severe acute respiratory syndrome coronavirus 2, UniProt P0DTD1).
T1 construct: the main protease (Mpro; also called 3CLpro) which has an essential role in processing the polyproteins
In words: biochemical. The conditions noted are these: FRET assay, Mpro 50 nM, substrate 10 μM.

Assay [2] relates to SARS-CoV-2 (SARS-CoV2/ZG/297-20) in Vero E6 cells. Briefly: microbe, parasite or virus in culture. The conditions noted are these: Severe acute respiratory syndrome coronavirus 2, Vero C1008, 72 h; for inhibition at 10 µM: read-out: Antiviral Activity 10 uM; for inhibition at 50 µM: read-out: Antiviral Activity 50 uM. The class given is cell-based.

On to `O=C1CCC(N2C(=O)c3cccc(NCCCCNC(=O)[C@@H](NC(=O)C(c4cccnc4)N(C(=O)c4ccco4)c4ccc5c(c4)oc4ccccc45)c4ccccc4)c3C2=O)C(=O)N1` (mixture of isomers) [TS313F1], for which, in assay [1], the IC50 (usually the concentration that gives 50% inhibition) is less than 1000 nM. For the same molecule, in assay [2], the inhibition at 10 µM was less than 25% and the inhibition at 50 µM was less than 0%.
Taken in the same sequence, the figures for `O=C1CCC(N2C(=O)c3cccc(OCCOCCOCCOCCNC(=O)c4ccc5c(N6C(=O)NC7(CC(c8ccccc8Cl)C7)C6=O)cncc5c4)c3C2=O)C(=O)N1` (stereo not drawn) [Compound C10778Y, 4-(2-(2-chlorophenyl)-6,8-dioxo-5,7-diazaspiro[3.4]octan-7-yl)-N-(2-(2-(2-(2-((2-(2,6-dioxopiperidin-3-yl)-1,3-dioxoisoindolin-4-yl)oxy)ethoxy)ethoxy)ethoxy)ethyl)isoquinoline-7-carboxamide] were less than 100 nM, less than 25% and less than 50%.
On to `O=C1CCC(N2C(=O)c3ccc(NCCCCCCNC(=O)c4ccc5cncc(N6C(=O)NC7(CC(c8ccccc8Cl)C7)C6=O)c5c4)cc3C2=O)C(=O)N1` (stereo not drawn) [Compound C10778Q, 4-(2-(2-chlorophenyl)-6,8-dioxo-5,7-diazaspiro[3.4]octan-7-yl)-N-(6-((2-(2,6-dioxopiperidin-3-yl)-1,3-dioxoisoindolin-5-yl)amino)hexyl)isoquinoline-6-carboxamide], for which the IC50 in assay [1] was less than 1000 nM. For the same molecule, in assay [2], the inhibition at 10 µM is less than 0% and the inhibition at 50 µM is less than 25%.
Regarding `O=C1CCC(N2C(=O)c3cccc(NCCCCCNC(=O)C(NC(=O)[C@@H](c4cccnc4)N(C(=O)c4ccco4)c4ccc5c(c4)oc4ccccc45)c4ccccc4)c3C2=O)C(=O)N1` (mixture of isomers) [TS301F1], the IC50 in assay [1] fell in the range of 10000 to 25000 nM. In addition, in assay [2], the inhibition at 10 µM is less than 0% and the inhibition at 50 µM is less than 0%.
For the molecule `O=C1CCC(N2C(=O)c3ccc(NCCOCCOCCOCCNC(=O)[C@H](NC(=O)[C@@H](c4cccnc4)N(C(=O)c4ccco4)c4ccc(-c5ccccc5)cc4)c4ccccc4)cc3C2=O)C(=O)N1` (single isomer, unassigned) [TS465], the IC50 in assay [1] was less than 100 nM. In addition, in assay [2], the inhibition at 10 µM is less than 25% and the inhibition at 50 µM is less than 50%.
Regarding `O=C1CCC(N2C(=O)c3cccc(NCCOCCOCCOCCNC(=O)C(NC(=O)[C@@H](c4cccnc4)N(C(=O)c4ccco4)c4ccc5c(c4)oc4ccccc45)c4ccccc4)c3C2=O)C(=O)N1` (mixture of isomers) [TS297F1], the 50% inhibitory concentration (IC50) in assay [1] is less than 1000 nM. In addition, in assay [2], the inhibition at 10 µM is less than 0% and the inhibition at 50 µM was less than 0%.
For the molecule `O=C1CCC(N2C(=O)c3cccc(NCCCCCCCCNC(=O)[C@@H](NC(=O)C(c4cccnc4)N(C(=O)c4ccco4)c4ccc5c(c4)oc4ccccc45)c4ccccc4)c3C2=O)C(=O)N1` (mixture of isomers) [TS369F1], the 50% inhibitory concentration (IC50) in assay [1] was more than 25000 nM. Besides, in assay [2], the inhibition at 10 µM was less than 25% and the inhibition at 50 µM is less than 25%.
On to `O=C(COc1ccc(C2CCC(=O)NC2=O)cc1)NCCCCNC(=O)[C@H](NC(=O)[C@@H](c1cccnc1)N(C(=O)c1ccco1)c1ccc(-c2ccccc2)cc1)c1ccccc1` (single isomer, unassigned) [TS477], for which the IC50 in assay [1] is less than 100 nM. Besides, in assay [2], the inhibition at 10 µM is less than 0% and the inhibition at 50 µM was less than 0%.
As for `O=C1CCC(N2C(=O)c3cccc(NCCCCCCNC(=O)[C@@H](NC(=O)C(c4cccnc4)N(C(=O)c4ccco4)c4ccc5c(c4)oc4ccccc45)c4ccccc4)c3C2=O)C(=O)N1` (stereo partly drawn) [TS296], the half-maximal inhibitory concentration (IC50) in assay [1] was more than 25000 nM. In assay [2], the inhibition at 10 µM was less than 0% and the inhibition at 50 µM is less than 0%.
For the molecule `O=C1CCC(N2C(=O)c3cccc(OCCCCCCC(=O)Nc4cccn([C@@H](CC5CC5)C(=O)N[C@@H](C[C@@H]5CCNC5=O)C(=O)C(=O)NCc5ccccc5)c4=O)c3C2=O)C(=O)N1` (stereo partly drawn) [BT150], the IC50 in assay [1] is less than 1000 nM. For the same molecule, in assay [2], the inhibition at 10 µM was less than 25% and the inhibition at 50 µM is less than 25%.
For `O=C1CCC(N2C(=O)c3cccc(NCCNC(=O)[C@@H](NC(=O)[C@@H](c4cccnc4)N(C(=O)c4ccco4)c4ccc5c(c4)oc4ccccc45)c4ccccc4)c3C2=O)C(=O)N1` (mixture of isomers) [TS365F1], the half-inhibitory concentration (IC50) in assay [1] is less than 1000 nM. Also, in assay [2], the inhibition at 10 µM was less than 75% and the inhibition at 50 µM was less than 25%.
Taken in the same sequence, the figures for `O=C1CCC(N2C(=O)c3cccc(OCCOCCOCCOCCNC(=O)c4ccc5cncc(N6C(=O)NC7(CC(c8ccccc8Cl)C7)C6=O)c5c4)c3C2=O)C(=O)N1` (stereo not drawn) [Compound C10778S, 4-(2-(2-chlorophenyl)-6,8-dioxo-5,7-diazaspiro[3.4]octan-7-yl)-N-(2-(2-(2-(2-((2-(2,6-dioxopiperidin-3-yl)-1,3-dioxoisoindolin-4-yl)oxy)ethoxy)ethoxy)ethoxy)ethyl)isoquinoline-6-carboxamide] were less than 100 nM, less than 25% and more than 75%.
On the same counts, the results for `O=C(COc1ccc(C2CCC(=O)NC2=O)cc1)NCCNC(=O)[C@H](NC(=O)[C@@H](c1cccnc1)N(C(=O)c1ccco1)c1ccc(-c2ccccc2)cc1)c1ccccc1` (single isomer, unassigned) [TS476] are less than 100 nM, less than 0% and less than 0%.
As for `O=C1CCC(N2C(=O)c3cccc(OCCNC(=O)c4ccc5c(N6C(=O)NC7(CC(c8ccccc8Cl)C7)C6=O)cncc5c4)c3C2=O)C(=O)N1` (stereo not drawn) [Compound C10778V, 4-(2-(2-chlorophenyl)-6,8-dioxo-5,7-diazaspiro[3.4]octan-7-yl)-N-(2-((2-(2,6-dioxopiperidin-3-yl)-1,3-dioxoisoindolin-4-yl)oxy)ethyl)isoquinoline-7-carboxamide], in assay [1], the half-maximal inhibitory concentration (IC50) is less than 100 nM. In assay [2], the inhibition at 10 µM was less than 25% and the inhibition at 50 µM was less than 25%.
As for `O=C1CCC(N2C(=O)c3cc(F)c(N4CCN(C(=O)[C@H](NC(=O)[C@@H](c5cccnc5)N(C(=O)c5ccco5)c5ccc(-c6ccccc6)cc5)c5ccccc5)CC4)cc3C2=O)C(=O)N1` (single isomer, unassigned) [TS467], the half-maximal inhibitory concentration (IC50) in assay [1] is less than 100 nM. Also, in assay [2], the inhibition at 10 µM was less than 25% and the inhibition at 50 µM was less than 25%.
In the case of `O=C1CCC(N2C(=O)c3ccc(NCCOCCNC(=O)[C@H](NC(=O)[C@@H](c4cccnc4)N(C(=O)c4ccco4)c4ccc(-c5ccccc5)cc4)c4ccccc4)cc3C2=O)C(=O)N1` (single isomer, unassigned) [TS462], in assay [1], the IC50 is less than 1000 nM. For the same molecule, in assay [2], the inhibition at 10 µM is less than 25% and the inhibition at 50 µM is less than 25%.
For the molecule `O=C1CCC(N2C(=O)c3cccc(NCCOCCNC(=O)C(NC(=O)[C@@H](c4cccnc4)N(C(=O)c4ccco4)c4ccc5c(c4)oc4ccccc45)c4ccccc4)c3C2=O)C(=O)N1` (mixture of isomers) [TS312F1], the IC50 in assay [1] is less than 10000 nM. In addition, in assay [2], the inhibition at 10 µM is less than 0% and the inhibition at 50 µM is less than 0%.
For the molecule `O=C1CCC(N2C(=O)c3cccc(NCCOCCOCCOCCOCCNC(=O)C(NC(=O)[C@@H](c4cccnc4)N(C(=O)c4ccco4)c4ccc5c(c4)oc4ccccc45)c4ccccc4)c3C2=O)C(=O)N1` (mixture of isomers) [TS303F1], the IC50 in assay [1] was less than 1000 nM. Also, in assay [2], the inhibition at 10 µM is less than 0% and the inhibition at 50 µM was less than 0%.

For the origin of these results see patent publication US20260137677A1, “PROTACS USEFUL AGAINST THE MAIN PROTEASE SARS-COV-2” (Tocris Cookson Limited, priority 2022, published 2026).
